From PMC11855827, “High-Throughput Screening of Five Compound Libraries for Anthelmintic Activity and Toxicity Leads to the Discovery of Two Flavonoid Compounds” (International Journal of Molecular Sciences, 2025)
Like-named read-outs stand apart in the source and are kept apart here.

Tested on: C. elegans
[1] = Table S2, C. elegans SS assay, 110 μM, 0 h, averages of 4 data points
[2] = Table S2, C. elegans SS assay, 110 μM, 24 h, averages of 4 data points

Compound	Percentage of motility inhibition 0 h [1] [%]	Percentage of motility inhibition 24 h [2] [%]	Percentage of motility inhibition 0 h (110 µM) [%]	Percentage of motility inhibition 24 h (110 µM) [%]
CO/N=C(\C(=O)N[C@@H]1C(=O)N2C(C(=O)O)=C(C[N+]3(C)CCCC3)CS[C@H]12)c1csc(N)n1.Cl.O.[Cl-] [Cefepime (Dihydrochloride Monohydrate)]	7	1		
CO/N=C(\C(=O)N[C@@H]1C(=O)N2C(C(=O)OCOC(=O)C(C)(C)C)=C(C)CS[C@H]12)c1csc(N)n1.Cl [Cefetamet pivoxil (hydrochloride)]	55	17		
CO/N=C(\C(=O)N[C@@H]1C(=O)N2C(C(=O)O)=C(CSc3nnnn3C)CS[C@H]12)c1csc(N)n1.CO/N=C(\C(=O)N[C@@H]1C(=O)N2C(C(=O)O)=C(CSc3nnnn3C)CS[C@H]12)c1csc(N)n1.Cl [Cefmenoxime (hydrochloride)]	15	0		
CO[C@@]1(NC(=O)CSCC#N)C(=O)N2C(C(=O)[O-])=C(CSc3nnnn3C)CS[C@@H]21.[Na+] [Cefmetazole (sodium)]	7	25		
O=C([O-])C1=C(CSc2nnnn2CS(=O)(=O)[O-])CS[C@@H]2[C@H](NC(=O)[C@H](O)c3ccccc3)C(=O)N12.[Na+].[Na+] [Cefonicid (sodium)]	0	2		
CO/N=C(\C(=O)N[C@@H]1C(=O)N2C(C(=O)O)=C(Cn3ccc(=N)n3CCO)CS[C@H]12)c1csc(N)n1.O=S(=O)(O)O [Cefoselis (sulfate)]	8	0		
CO/N=C(\C(=O)N[C@@H]1C(=O)N2C(C(=O)[O-])=C(COC(C)=O)CS[C@H]12)c1csc(N)n1.[Na+] [Cefotaxime (sodium salt)]	30	34		
CN(C)CCn1nnnc1SCC1=C(C(=O)O)N2C(=O)[C@@H](NC(=O)Cc3csc(N)n3)[C@H]2SC1.Cl.Cl [Cefotiam (hydrochloride)]	66	37		
CO[C@@]1(NC(=O)Cc2cccs2)C(=O)N2C(C(=O)[O-])=C(COC(N)=O)CS[C@@H]21.[Na+] [Cefoxitin (sodium)]	0	0		
CO/N=C(\C(=O)N[C@@H]1C(=O)N2C(C(=O)[O-])=C(C[n+]3ccn4ncccc43)CS[C@H]12)c1nsc(N)n1.Cl [Cefozopran (hydrochloride)]	10	12		
Cc1cc(O)c(C(=O)N[C@@H](C(=O)N[C@@H]2C(=O)N3C(C(=O)[O-])=C(CSc4nnnn4C)CS[C@H]23)c2ccc(O)cc2)cn1.[Na+] [Cefpiramide (sodium)]	0	7		
CO/N=C(\C(=O)N[C@@H]1C(=O)N2C(C(=O)[O-])=C(C[n+]3cccc4c3CCC4)CS[C@H]12)c1csc(N)n1.O=S(=O)(O)O [Cefpirome (sulfate)]	13	0		
C/C=C/C1=C(C(=O)O)N2C(=O)[C@@H](NC(=O)[C@H](N)c3ccc(O)cc3)[C@H]2SC1.O [Cefprozil (monohydrate)]	12	14		
NC(=O)c1cc[n+](CC2=C(C(=O)[O-])N3C(=O)[C@@H](NC(=O)[C@@H](c4ccccc4)S(=O)(=O)[O-])[C@H]3SC2)cc1.[Na+] [Cefsulodin (sodium)]	17	6		
Nc1nc(/C(=C/CC(=O)O)C(=O)N[C@@H]2C(=O)N3C(C(=O)O)=CCS[C@H]23)cs1.O.O [Ceftibuten (dihydrate)]	19	5		
CO/N=C(\C(=O)N[C@@H]1C(=O)N2C(C(=O)[O-])=C(CSC(=O)c3ccco3)CS[C@H]12)c1csc(N)n1.[Na+] [Ceftiofur (sodium)]	17	1		
CO/N=C(\C(=O)N[C@@H]1C(=O)N2C(C(=O)[O-])=CCS[C@H]12)c1csc(N)n1.[Na+] [Ceftizoxime (sodium)]	0	3		
CO/N=C(\C(=O)N[C@@H]1C(=O)N2C(C(=O)[O-])=C(CSc3nc(=O)c([O-])nn3C)CS[C@H]12)c1csc(N)n1.CO/N=C(\C(=O)N[C@@H]1C(=O)N2C(C(=O)[O-])=C(CSc3nc(=O)c([O-])nn3C)CS[C@H]12)c1csc(N)n1.O.O.O.O.O.O.O.[Na+].[Na+].[Na+].[Na+] [Ceftriaxone (sodium salt)]			25	16
CO/N=C(\C(=O)N[C@@H]1C(=O)N2C(C(=O)[O-])=C(COC(N)=O)CS[C@H]12)c1ccco1.[Na+] [Cefuroxime (sodium)]	19	17		
CC[C@H]1CN2CCc3cc(OC)c(OC)cc3[C@@H]2C[C@@H]1C[C@H]1NCCc2cc(O)c(OC)cc21.Cl.Cl [Cephaeline (dihydrochloride)]	18	4		
CC1=C(C(=O)O)N2C(=O)[C@@H](NC(=O)[C@H](N)c3ccccc3)[C@H]2SC1.O [Cephalexin (monohydrate)]	8	0		

Compound	Percentage of motility inhibition 0 h [1] [%]	Percentage of motility inhibition 24 h [2] [%]	Percentage of motility inhibition 0 h (110 µM) [%]	Percentage of motility inhibition 24 h (110 µM) [%]
CC(=O)OCC1=C(C(=O)[O-])N2C(=O)[C@@H](NC(=O)Cc3cccs3)[C@H]2SC1.[Na+] [Cephalothin (sodium)]	9	11		
COc1ccc2c(c[n+](C)c3c4cc5c(cc4ccc23)OCO5)c1OC.[Cl-] [Chelerythrine (chloride)]	17	22		
CC(=O)O.CC(=O)O.NC(=N\CCCCCC/N=C(N)/N=C(\N)Nc1ccc(Cl)cc1)/N=C(\N)Nc1ccc(Cl)cc1 [Chlorhexidine (diacetate)]	38	62		
N=C(NCCCCCCNC(=N)NC(=N)Nc1ccc(Cl)cc1)NC(=N)Nc1ccc(Cl)cc1.O=C(O)[C@H](O)[C@@H](O)[C@H](O)[C@H](O)CO.O=C(O)[C@H](O)[C@@H](O)[C@H](O)[C@H](O)CO [Chlorhexidine (digluconate)]	39	46		
CN(C)[C@@H]1C(=O)C(C(N)=O)=C(O)[C@@]2(O)C(=O)C3=C(O)c4c(O)ccc(Cl)c4[C@@](C)(O)[C@H]3C[C@@H]12.Cl [Chlortetracycline (hydrochloride)]	24	5		
C[C@H](CCC(=O)[O-])[C@H]1CC[C@H]2[C@@H]3[C@H](O)C[C@@H]4C[C@H](O)CC[C@]4(C)[C@H]3C[C@H](O)[C@]12C.[Na+] [Cholic acid (sodium)]	0	5		
C[N+](C)(C)CCO.O=C([O-])C(O)C(O)C(=O)O (stereo not shown) [Choline (bitartrate)]	0	0		
C[N+](C)(C)CCO.[Cl-] [Choline (chloride)]	51	17		
O=C(O)[C@H]1O[C@@H](Oc2cc(O)c3c(=O)cc(-c4ccccc4)oc3c2)[C@H](O)[C@@H](O)[C@@H]1O [Chrysin‐7‐O‐glucuronide]	0	37		
COc1cc(-c2oc3cc(OC)c(OC)c(O)c3c(=O)c2OC)ccc1O [Chrysosplenetin]	17	6		
C[C@H](CC(=O)[C@@H]1OC1(C)C)[C@H]1C(=O)C[C@@]2(C)C3=CC[C@H]4C(C)(C)[C@@H](O[C@@H]5OC[C@@H](O)[C@H](O)[C@H]5O)CC[C@@]45C[C@@]35[C@@H](O)C[C@]12C [Cimicifugoside H-1]	0	3		
C[C@@H]1C[C@H]2O[C@@]3(O[C@@H]2C(C)(C)O)[C@H](O)[C@@]2(C)[C@@H]4CC[C@H]5C(C)(C)[C@@H](O[C@@H]6OC[C@@H](O)[C@H](O)[C@H]6O)CC[C@@]56C[C@@]46CC[C@]2(C)[C@@H]13 [Cimigenoside]	30	17		
CC(=O)O[C@@H]1C[C@@]23C[C@@]24CC[C@H](O[C@@H]2OC[C@H](O)[C@H](O)[C@H]2O)C(C)(C)[C@@H]4CC[C@H]3[C@]2(C)[C@@H](O)[C@]34O[C@H](C[C@@H](C)[C@@H]3[C@@]12C)[C@@H](C(C)(C)O)O4 [Cimiracemoside D]	0	0		
Oc1cc(O)c2c(c1)O[C@@]1(c3ccc(O)c(O)c3)Oc3cc(O)c4c(c3[C@@H]2[C@H]1O)O[C@H](c1ccc(O)c(O)c1)[C@H](O)[C@H]4c1c(O)cc(O)c2c1O[C@H](c1ccc(O)c(O)c1)[C@H](O)C2 [Cinnamtannin B‐1]	0	4		
C[N+](C)(C)CCOP(=O)([O-])OP(=O)([O-])OC[C@H]1O[C@@H](n2ccc(N)nc2=O)[C@H](O)[C@@H]1O.[Na+] [Citicoline (sodium)]	4	0		
O.O=C(O)CC(O)(CC(=O)O)C(=O)O [Citric acid (monohydrate)]	63	32		
N.N.N.O=C(O)CC(O)(CC(=O)O)C(=O)O [Citric acid (triammonium)]	8	0		
O.O=C([O-])CC(O)(CC(=O)[O-])C(=O)[O-].[K+].[K+].[K+] [Citric acid (tripotassium hydrate)]	28	4		
O=C([O-])CC(O)(CC(=O)[O-])C(=O)[O-].[Na+].[Na+].[Na+] [Citric acid (trisodium)]	8	2		
Cl.Clc1ccc(Cn2c(CN3CCCC3)nc3ccccc32)cc1 [Clemizole (hydrochloride)]	25	69		
